Where two headings read alike, the source gives them in different places.
System: primary neuronal cultures from embryonic rat brains
Assay: Rat oscillation assay (FLIPR, neuronal calcium oscillations)
Type: cell-based
Method: A) Rat Oscillation Assay:
This assay is a functional phenotypic assay designed to mimic epileptic seizures using primary neuronal cultures from embryonic rat brains, which form a functional neuronal network that generate synchronized intracellular calcium concentration oscillations when cultured at high density in 384-well plate. The epileptic phenotype is induced by incubating the neurons in magnesium-free assay buffer, that results in increased probability of NMDA receptor activation, leading to an increased frequency and amplitude of intracellular calcium oscillations. Once neurons are incubated with the calcium indicator dye Fluo-8 AM (Tebu-bio), neuronal calcium oscillations can be monitored in real time using FLIPR® Tetra (fluorometric plate reader, Molecular Devices). With these recordings, the effect of anti-epileptic drugs can be quantified. The anti-epileptic effect of compounds, which activate directly or indirectly the Kv7 channels can be modulated by the Kv7 channel blocker XE-991. The assay was performed as described previously (Pacico N, Mingorance-Le Meur A. New In Vitro Phenotypic Assay for Epilepsy: Fluorescent Measurement of Synchronized Neuronal Calcium Oscillations. PLoS ONE 9(1) 2014) with modifications described hereafter.
Animal care followed standard procedures in accordance with swiss institutional guidelines. Dissociated neuronal cultures were obtained from cerebral cortices of embryonic Wistar rats at embryonic stage E18 (Charles River). The uterine horns were removed by caesarian surgery from deeply anesthetized rats (Isofurane) and sacrificed by decapitation. The embryos were decapitated by closing forceps. The brains were isolated and dissected one by one in ice-cold PBS (Life Technologies) under optical control using a binocular. Meninges, olfactory bulbs, and basal ganglia were removed. Cortical hemispheres (still including the hippocampus) were cut in small pieces with tweezers and placed on ice in pre-chilled Hibernate-E medium (Life technology). The hemispheres were then incubated in 10 mL of Hibernate-E containing 15 U/mL papain (Worthington) for 25 min at 30° C. with gentle mixing every 10 min. Genomic DNA was then digested by prolonging the incubation during 10 min at 37° C. in presence of 4 U/mL rDNase I (Ambion). The obtained suspension was then centrifuged at 800 g for 5 min and the cell pellet was resuspended in 2 mL Hibernate-E and gently dissociated by pipetting up and down 10 times with a plastic Pasteur pipette resulting in a homogenous cell suspension. This suspension was immediately filtered through a 70 µm cell strainer (MACS® SmartStrainer, Miltenyi), collected in 10 mL Hibernate-E and centrifuged at 800 g for 5 min. The cell pellet was resuspended in Neurobasal medium, supplemented with 2% B-27, 0.5 mM Glutamax-I, 100 U/mL penicillin, 100 µg/mL streptomycin (Life Technologies) and diluted at the final concentration of 300′000 cells/mL. One day before plating the cells, 384-well plates were coated with 25 μL/well of 0.1% poly-L-lysine solution (Sigma), incubated overnight at 37° C., washed two times with sterile distilled water and allowed to dry at room temperature for >2 h. The neurons were seeded at a density of 15′000 cells/well in 50 μL/well in a 384-well black, clear-bottomed plates (Corning) and subsequently maintained in an incubator at 37° C., 5% CO2 and 95% humidity for 8 to 10 days. After 3 and 7 days, 40% of media was renewed under sterile conditions.
Protocol Rat Oscillation Assay
Neurons seeded in the assay plates were washed with Hank's balanced salt solution (HBSS) devoid of Ca^2+ and Mg^2+, supplemented with 20 mM HEPES (Life Technologies) and 2 mM CaCl2 (Sigma), pH 7.4 (hereafter called Assay buffer) using a Biotek EL406 plate washer. Neurons were loaded with 1 μM Fluo-8 AM in Assay buffer for 15 min at 37° C., 5% CO2. […]

[1] = Rattus norvegicus, Acute phase, ratio of AUC fluorescence before and after compound addition, read-out: FLIPR: IC50 [nM] acute
[2] = Rattus norvegicus, 20 min, AUC of fluorescence measured 20 min after compound addition, read-out: FLIPR: IC50 [nM] 20 min

SMILES | IC50 (AUC of fluorescence measured 20 min after compound addition, read-out: FLIPR: IC50 [nM] 20 min) [nM] | IC50 [1] [nM] | IC50 [2] [nM]
CC(Oc1cccc(C2(NC(=O)NC3CC4(CCC4)C3)CC2)c1)C(F)(F)F (single isomer, unassigned) [Example 169, 1-Spiro[3.3]hept-2-yl-3-{1-[3-(2,2,2-trifluoro-1-methyl-ethoxy)-phenyl]-cyclopropyl}-urea] | 20 | 42 | –
O=C(NC1CC2(CCC2)C1)NC1(c2cccc(C(F)(F)F)c2)COC1 [Example 44, 1-Spiro[3.3]hept-2-yl-3-[3-(3-trifluoromethyl-phenyl)-oxetan-3-yl]-urea] | – | 78 | 100
CS(=O)(=O)CC(NC(=O)NC1CC2(CCC2)C1)c1cccc(OC(F)(F)F)c1 (racemic) [Example 64, (±)-1-[2-Methanesulfonyl-1-(3-trifluoromethoxy-phenyl)-ethyl]-3-spiro[3.3]hept-2-yl-urea] | – | 44 | 47
Cc1c(OCC(F)(F)F)cccc1C(C)NC(=O)NC1CC2(CCC2)C1 (racemic) [Example 29, (±)-1-{1-[2-Methyl-3-(2,2,2-trifluoro-ethoxy)-phenyl]-ethyl}-3-spiro[3.3]hept-2-yl-urea] | – | 452 | 253
CC(C)(NC(=O)NC1CC2(CCC2)C1)c1ccnc(OC(F)F)c1 [Example 52, 1-[1-(2-Difluoromethoxy-pyridin-4-yl)-1-methyl-ethyl]-3-spiro[3.3]hept-2-yl-urea] | – | 72 | 143
C[C@H](NC(=O)NC1CC2(CCC2)C1)c1cccc(OC(F)F)c1 (single isomer, unassigned) [Example 173] | – | 7 | 11
CC(NC(=O)NC1CC2(CCC2)C1)c1ccnc(OC(C)C(F)(F)F)c1 (stereo not shown) [Example 101, 1-(Spiro[3.3]heptan-2-yl)-3-(1-(2-((1,1,1-trifluoropropan-2-yl)oxy)pyridin-4-yl)ethyl)urea] | – | 2.4 | 1.6
CC(NC(=O)NC1CC2(CCC2)C1)c1cccc(OC(C)C(F)(F)F)c1 (stereo not shown) [Example 102, 1-(Spiro[3.3]heptan-2-yl)-3-(1-(3-((1,1,1-trifluoropropan-2-yl)oxy)phenyl)ethyl)urea] | – | 2.8 | 0.5
N#CCC(NC(=O)NC1CC2(CCC2)C1)c1cccc(C(F)(F)F)c1 (racemic) [Example 67, (±)-1-[2-Cyano-1-(3-trifluoromethyl-phenyl)-ethyl]-3-spiro[3.3]hept-2-yl-urea] | – | 10 | 11
O=C(NCc1cccc(C(F)F)c1)NC1CC2(CC2)C1 [Example 158, 1-(3-Difluoromethyl-benzyl)-3-spiro[2.3]hex-5-yl-urea] | – | 390 | 414
O=C(NC1CC2(CCC2)C1)NC(CO)c1cc(OCC(F)(F)F)ncn1 (racemic) [Example 83, (±)-1-{2-Hydroxy-1-[6-(2,2,2-trifluoro-ethoxy)-pyrimidin-4-yl]-ethyl}-3-spiro[3.3]hept-2-yl-urea] | – | 93 | 100
COc1ccc(OCC(F)(F)F)cc1C(C)NC(=O)NC1CC2(CCC2)C1 (racemic) [Example 40, (±)-1-{1-[2-Methoxy-5-(2,2,2-trifluoro-ethoxy)-phenyl]-ethyl}-3-spiro[3.3]hept-2-yl-urea] | – | 351 | 382
O=C(NCc1cc(F)cc(C(F)(F)F)c1)NC1CC2(CCC2)C1 [Example 18, 1-(3-Fluoro-5-trifluoromethyl-benzyl)-3-spiro[3.3]hept-2-yl-urea] | – | 109 | 65
O=C(NC1CC2(CCC2)C1)NC1(c2ccnc(OCC(F)(F)F)c2)CCOCC1 [Example 49, 1-Spiro[3.3]hept-2-yl-3-{4-[2-(2,2,2-trifluoro-ethoxy)-pyridin-4-yl]-tetrahydro-pyran-4-yl}-urea] | – | 680 | 1530
CC(NC(=O)NC1CC2(CCC2)C1)c1ccc(F)c(OCC(F)(F)F)c1 (racemic) [Example 113, (±)-1-{1-[4-Fluoro-3-(2,2,2-trifluoro-ethoxy)-phenyl]-ethyl}-3-spiro[3.3]hept-2-yl-urea] | – | 33 | 22
O=C(NCc1cc(C(F)(F)F)ccc1F)NC1CC2(CCC2)C1 [Example 16, 1-(2-Fluoro-5-trifluoromethyl-benzyl)-3-spiro[3.3]hept-2-yl-urea] | – | 224 | 196
O=C(NC1CC2(CCC2)C1)NC(CO)c1cccc(C(F)(F)F)c1 (racemic) [Example 76, (±)-1-[2-Hydroxy-1-(3-trifluoromethyl-phenyl)-ethyl]-3-spiro[3.3]hept-2-yl-urea] | – | 19 | 17
O=C(NC1CC2(CCC2)C1)N[C@H](c1cccc(C(F)(F)F)c1)c1nc[nH]n1 (single isomer, unassigned) [Example 179] | – | 24 | 13
COCC(NC(=O)NC1CC2(CCC2)C1)c1cccc(C(F)(F)F)c1 (racemic) [Example 9, (±)-1-[2-Methoxy-1-(3-trifluoromethyl-phenyl)-ethyl]-3-spiro[3.3]hept-2-yl-urea] | – | 5.1 | 2.1
O=C(NCc1cccc(OC(F)(F)F)c1)NC1CC2(CCC2)C1 [Example 41, 1-Spiro[3.3]hept-2-yl-3-(3-trifluoromethoxy-benzyl)-urea] | – | 44 | 25
CC(NC(=O)NC1CC2(CCC2)C1)c1cc(C(F)(F)F)ccc1Br (racemic) [Example 19, (±)-1-[1-(2-Bromo-5-trifluoromethyl-phenyl)-ethyl]-3-spiro[3.3]hept-2-yl-urea] | – | 337 | 274
Cc1nc(OCC(F)(F)F)cc(C(CO)NC(=O)NC2CC3(CC3)C2)n1 (racemic) [Example 123, (±)-1-{2-Hydroxy-1-[2-methyl-6-(2,2,2-trifluoro-ethoxy)-pyrimidin-4-yl]-ethyl}-3-spiro[2.3]hex-5-yl-urea] | – | 395 | 367
COc1c(CNC(=O)NC2CC3(CC3)C2)cccc1C(F)(F)F [Example 128, 1-(2-Methoxy-3-trifluoromethyl-benzyl)-3-spiro[2.3]hex-5-yl-urea] | – | 981 | 950
O=C(NCc1cccc(OC(F)(F)F)c1F)NC1CC2(CC2)C1 [Example 134, 1-(2-Fluoro-3-trifluoromethoxy-benzyl)-3-spiro[2.3]hex-5-yl-urea] | – | 63 | 82
COCC(NC(=O)NC1CC2(CCC2)C1)c1ccnc(OC(F)F)c1 (racemic) [Example 10, (±)-1-[1-(2-Difluoromethoxy-pyridin-4-yl)-2-methoxy-ethyl]-3-spiro[3.3]hept-2-yl-urea] | – | 6.2 | 6
O=C(NCc1cccc(COC(F)(F)F)c1)NC1CC2(CCC2)C1 [Example 43, 1-Spiro[3.3]hept-2-yl-3-(3-trifluoromethoxymethyl-benzyl)-urea] | – | 16 | 22
CN(C)CC(NC(=O)NC1CC2(CCC2)C1)c1cccc(OCC(F)(F)F)n1 (racemic) [Example 48, (±)-1-{2-Dimethylamino-1-[6-(2,2,2-trifluoro-ethoxy)-pyridin-2-yl]-ethyl}-3-spiro[3.3]hept-2-yl-urea] | – | 510 | 138
O=C(NCc1cccc(S(F)(F)(F)(F)F)c1)NC1CC2(CCC2)C1 [Example 35, 1-(3-(pentafluoro-λ^6-sulfaneyl)benzyl)-3-(spiro[3.3]heptan-2-yl)urea] | – | 22 | 24
O=C(NC1CC2(CCC2)C1)NC(CCO)c1cccc(OCC(F)(F)F)c1 (racemic) [Example 88, (±)-1-{3-Hydroxy-1-[3-(2,2,2-trifluoro-ethoxy)-phenyl]-propyl}-3-spiro[3.3]hept-2-yl-urea] | – | 45 | 28
